Molecules are shown by their SMILES. Values joined by “and” are separate entries in the source; they are usually repeats but may differ in a detail not shown here. Equal values may be shown once. Read-outs that look alike come from different tables or passages of the source.

Test [1] deals with T1, THIK-1 I139A (Homo sapiens, UniProt Q9HB14, I139A).
T1 construct: expressed in transfected cells; host or cells: Xenopus oocytes (mRNA injection)
T1 sequence (Q9HB14 1-408 I139A): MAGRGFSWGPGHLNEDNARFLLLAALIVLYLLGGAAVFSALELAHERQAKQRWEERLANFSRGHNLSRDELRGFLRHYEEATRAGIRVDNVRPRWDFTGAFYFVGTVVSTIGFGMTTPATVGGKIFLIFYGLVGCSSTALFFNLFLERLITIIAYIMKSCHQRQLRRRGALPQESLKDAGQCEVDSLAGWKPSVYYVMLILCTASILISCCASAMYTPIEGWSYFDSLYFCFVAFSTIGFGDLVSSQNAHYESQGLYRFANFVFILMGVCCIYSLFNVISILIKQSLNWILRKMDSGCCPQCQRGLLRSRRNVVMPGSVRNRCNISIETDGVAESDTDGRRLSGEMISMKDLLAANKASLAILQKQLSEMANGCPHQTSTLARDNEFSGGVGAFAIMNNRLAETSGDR
The experiment in a line: Inside-out excised patch recordings, oocytes, THIK-1 I139A mutant. As to conditions: for τ of 1 mM TPenA block / τ of 1 mM TPenA release: I139A; for Normalized currents: THIK-1 I139A. Format: cell-based. The source says:
Human K2P13.1 THIK-1 (GenBank accession number: NM_022054) and human K2P12.1 THIK-2 (NM_022055.1) were used in this study. For functional expression studies, the respective K^+ channel subtype coding sequences were subcloned into the oocyte expression vector pSGEM or the dual-purpose expression vector pFAW[41] and verified by sequencing. All mutant channels were obtained by site-directed mutagenesis and verified by sequencing. To increase surface expression and macroscopic currents, measurements of THIK-2 channels used a mutated ER retention motif, (R11A R12A R14A R15A R16A; THIK-2*)[20]. Vector DNA was linearized with NheI or MluI, and mRNA was synthesized in vitro using the SP6 or T7 AmpliCap Max High Yield Message Maker Kit (Cellscript, USA) or HiScribe T7 ARCA mRNA Kit (New England Biolabs).
Two-electrode voltage–clamp (TEVC) studies were performed in Xenopus oocytes. All animal use conformed to the Guide for the Care and Use of Laboratory Animals (NIH Publication 85–23), and all experiments using Xenopus toads were approved by the local ethics panels. Oocytes were stored at 17 °C in ND96 recording solution composed of (in mM): 96 NaCl, 2 KCl, 1.8 CaCl2, 1 MgCl2, 5 HEPES (pH 7.5 adjusted with NaOH and HCl), supplemented with Na-pyruvate (275 mg L^–1), theophylline (90 mg L^–1) and gentamicin (50 mg L^–1). Oocytes were injected with 1 ng mRNA for WT or mutant channels, and were incubated for 24–48 h at 17 °C. Two-electrode voltage clamp recordings were then performed as previously described[42],[43]. For macroscopic patch–clamp measurements, oocytes were obtained as described above incubated at 17 °C in a solution containing (mM): 54 NaCl, 30 KCl, 2.4 NaHCO3, 0.82 MgSO4 ×7 H2O, 0.41 CaCl2, 0.33 Ca(NO3)2 ×4 H2O and 7.5 TRIS (pH 7.4 adjusted with NaOH and HCl) for 1–4 days before use. Excised patch recordings in inside-out configuration conditions were performed at room temperature. Patch pipettes were made from thick-walled borosilicate glass GB 200TF-8P (Science Products), had resistances of 0.2–0.5 MΩ (tip diameter, 10–25 µm) and filled with a pipette solution (in mM): 120 KCl, 10 HEPES and 3.6 CaCl2 (pH 7.4 adjusted with KOH and HCl). Intracellular bath solutions and compounds were applied to the cytoplasmic side of excised patches for the various K^+ channels through a gravity flow multi-barrel pipette system. The intracellular solution had the following composition (in mM): 120 KCl, 10 HEPES, 2 EGTA and 1 pyrophosphate (pH adjusted with KOH and HCl). Currents were recorded with an EPC10 amplifier (HEKA Electronics) and sampled at 10 kHz or higher, with filtering set to 3 kHz (–3 dB) or higher, as appropriate for sampling rate. For measurements of GPCR activation, whole-cell currents were recorded for THIK-1 in transiently transfected HEK-293 cells. Cells were stimulated by a ramp protocol between −100 and +60 mV (holding potential, −80 mV). The pipette solution was composed of (in mM): 140 KCl, 2 MgCl2, 1 CaCl2, 2.5 EGTA and 10 HEPES (pH 7.3 adjusted with KOH and HCl). The extracellular bath solution had the following composition (in mM): 135 NaCl, 5 KCl, 2 MgCl2, 2 CaCl2, 10 glucose and 10 HEPES pH (pH 7.3 adjusted with NaOH and HCl). Oxotremorine M (Oxo-M) was added to extracellular bath solution to obtain the final concentration. Single-channel currents were recorded with an Axopatch 200B amplifier through a Digidata 1440A digitizer (Molecular Devices). Data were filtered at 2 kHz and recorded at a 200-kHz sampling rate with the program Clampex (Molecular Devices). Pipette solution and bath solution for cell-attached recordings contained (in mM): 140 KCl, 2 MgCl2, 1 CaCl2 and 10 HEPES (pH 7.4 adjusted with KOH and HCl). For inside-out recordings, the bath solution contained (in mM): 140 KCl, 2 MgCl2, 1 CaCl2 and 10 HEPES (pH 7.2 adjusted with KOH and HCl). All experiments were conducted at room temperature. […]

The target in test [2] is T2, THIK-1 R258A (Homo sapiens, UniProt Q9HB14, R258A).
T2 construct: expressed in transfected cells; host or cells: Xenopus oocytes (mRNA injection)
T2 sequence (Q9HB14 whole entry R258A): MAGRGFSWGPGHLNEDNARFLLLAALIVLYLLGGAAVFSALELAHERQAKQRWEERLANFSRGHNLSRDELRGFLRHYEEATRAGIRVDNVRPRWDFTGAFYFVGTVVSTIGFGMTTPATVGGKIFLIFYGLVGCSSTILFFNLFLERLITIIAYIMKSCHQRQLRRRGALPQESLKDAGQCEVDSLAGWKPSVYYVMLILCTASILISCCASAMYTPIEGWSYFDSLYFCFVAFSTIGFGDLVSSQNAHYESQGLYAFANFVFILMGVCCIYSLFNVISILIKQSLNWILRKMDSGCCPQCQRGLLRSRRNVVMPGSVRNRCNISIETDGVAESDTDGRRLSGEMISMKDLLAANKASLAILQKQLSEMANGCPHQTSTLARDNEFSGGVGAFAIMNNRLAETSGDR
The experiment in a line: Inside-out excised patch recordings, oocytes, THIK-1 R258A mutant (lipid activation). The format is cell-based. As to conditions: read-out: Linoleic acid EC50. From the text: Supplement 41594_2025_1497_MOESM2_ESM.xlsx, sheet "ExtData_Fig_S5f" | column: Linoleic acid EC50 (µM); R258A

For the compound `CCCCC[N+](CCCCC)(CCCCC)CCCCC` [TPenA, tetrapentylammonium], the “τ of 1 mM TPenA block” value in test [1] (individual recordings) is 0.150 s and 0.087 s and 0.338 s and 0.121 s and 0.235 s and 0.061 s and 0.088 s and 0.065 s and 0.063 s and 0.057 s and 0.086 s and 0.068 s and 0.117 s and 0.145 s and 0.215 s and 0.129 s and 0.101 s and 0.147 s and 0.113 s and 0.270 s and 0.151 s and 0.198 s and 0.133 s; in test [1] (mean) it was 0.13 s. Further, the “τ of 1 mM TPenA release” value in test [1] (individual recordings) was 1.320 s and 0.719 s and 0.852 s and 0.882 s and 0.634 s and 0.828 s and 0.460 s and 0.897 s and 0.583 s and 1.759 s and 0.311 s and 0.642 s and 0.558 s and 0.489 s and 0.435 s and 0.476 s and 0.409 s and 0.565 s and 0.635 s and 0.683 s and 0.647 s and 0.518 s and 0.501 s; in test [1] (mean) it was 0.68 s. Besides, the Normalized currents in test [1] (TPenA 0.1 µM) came out at 1.00; in test [1] (TPenA 1 µM), 0.93; in test [1] (TPenA 4 µM) it was 0.83; in test [1] (TPenA 15.6 µM), 0.67; in test [1] (TPenA 62.5 µM) it was 0.44; in test [1] (TPenA 250 µM) it was 0.22. The Normalized currents in test [1] (TPenA 1000 µM) is given as 0.11; in test [1] (TPenA 4000 µM), 0.08.

As usually defined, the EC50 is the concentration that produces a half-maximal response. Consider `CCCCC/C=C\C/C=C\CCCCCCCC(=O)O` [linoleic acid], for which the EC50 is 24.9 µM and 30.3 µM and 69.4 µM and 74.3 µM and 47.4 µM and 62.2 µM and 21.9 µM and 23.3 µM and 47.9 µM and 30 µM in test [2] (individual recordings); 43.2 µM in test [2] (mean).

Source of the values: paper PMC12263422, “Cryo-EM structure of the human THIK-1 K2P K^+ channel reveals a lower Y gate regulated by lipids and anesthetics” (Nature Structural & Molecular Biology, 2025).
